What was measured:
[1] = Balb/c mouse pharmacokinetics after oral (PO) dosing; format: in vivo; conditions: male, plasma
Method: Compounds were formulated in 5% DMSO, 40% PEG-400, 55% Milli-Q water at a concentration of 0.5 mg/mL for 5 mg/kg and 3 mg/mL for 30 mg/kg PO dosing. […] Blood was sampled at various timepoints and plasma isolated. 10 μL of plasma with 5 μL of blank Balb/c mouse plasma were added to 200 μL of acetonitrile containing IS mixture. The samples were vortexed for 30 s. After centrifugation at 4 degree Celsius, 3900 rpm for 15 min, the supernatant was diluted 3 times with water. 20 μL of diluted supernatant was injected into the LC/MS/MS system for quantitative analysis and concentration of analyte determined by comparison with matrix matched standard curve. WinNonlin (Phoenix™, version 8.3) or other similar software was used for pharmacokinetic calculations.

BRD4 BD1 = target: T1, BRD4 BD1 (Homo sapiens, UniProt O60885); assay: NanoBRET bromodomain assay, BRD4 BD1; format: cell-based; conditions: HEK293 cells transfected with NanoLuc-BRD4-BD1
T1 construct: HEK293 cells were transfected using NanoLuc-BRD4-BD1 or NanoLuc-BRD4-BD2 fusion vectors; host or cells: HEK293
Method: (§1) HEK293 cells were transfected using NanoLuc-BRD4-BD1 or NanoLuc-BRD4-BD2 fusion vectors and incubated at 37° C. in an atmosphere of 5% CO2 for 20-24 hours. The transfected cells were then dispensed into 96-well plates using 90 μl cell suspension per well containing 2×10^5 cells/ml in Opti-MEM and 1x final concentration of tracer. 90 μl per well of cell suspension without tracer was also dispensed into at least 3 wells as “No tracer control samples” for background correction. Serially diluted test compounds were prepared at 1000× concentration in DMSO and further diluted to 10× concentration in Opti-MEM. 10 μl per well of the serially diluted 10× test compound was added to the 96-well plates containing cells with 1x tracer. Plates were then incubated at 37° C.+5% C02 incubator for 2 hours. Immediately prior to BRET measurements, a 3x solution consisting of 1:166 dilution of Nano-Glo® Substrate plus a 1:500 dilution of Extracellular NanoLuc Inhibitor in Opti-MEM was prepared and 50 μl per well was added to the cells. Donor emission (450 nm) and acceptor emission (610 nm) were measured using PHERAstar (BMG LabTech). For data analysis, the raw BRET ratio was generated and converted to milliBRET units with background correction using the formula: [(Acceptorsample/Donorsample)−(Acceptorno tracer control/Donorno tracer control)]×1000. The mBU data was plotted as a function of compound concentration and IC50s for BRET assay were determined by nonlinear regression analysis of concentration response curves using the GraphPad Prism software.

BRD4 BD2 = target: T2, BRD4 BD2 (Homo sapiens, UniProt O60885); assay: NanoBRET bromodomain assay, BRD4 BD2; format: cell-based; conditions: for Fold selectivity BRD4 BD1/BD2: IC50 BD1/IC50 BD2; for IC50: NanoBRET, HEK293 cells transfected with NanoLuc-BRD4-BD2
T2 construct: HEK293 cells were transfected using NanoLuc-BRD4-BD1 or NanoLuc-BRD4-BD2 fusion vectors; host or cells: HEK293
Method: as §1
Fold Selectivity Calculated (IC50 BD1/IC50 BD2).

[2] = Intrinsic clearance in rat liver microsomes; format: in vitro ADME; conditions: pH 7.4, NADPH, read-out: Rat Microsomal Stability T½
Method: A 50 mM stock solution (in DMSO) was prepared for the compound. From the stock solution, a working solution of 0.5 mM was prepared by diluting the compound in DMSO. This concentration of working solution was prepared considering a final concentration of 1 uM with 0.1% DMSO. The compound (1 uL of working solution) was spiked in PBS with pH 7.4 (22 uL) at a concentration of 1 uM. Subsequently, 110 uL of 10 mM NADPH was added (as a co-factor). The sample was incubated at 37° C. for 15 min. Following this, pre-warmed rat liver microsomes (27.5 uL; final protein conc. 0.5 mg/mL) were added. The samples were then incubated at 37° C. Aliquots of samples were withdrawn at 0, 5, 15, 30, 45 and 60 min. The reaction was stopped by using chilled acetonitrile containing internal standard. The samples were centrifuged and the supernatants analysed by LC-MS/MS. The percent compound remaining at each time point was calculated with respect to that of the 0 min sample. The data were then analysed to calculate half-life. Note that control samples were run without NADPH and blank samples were prepared using DMSO without the test Compound.

| Structure (SMILES) | Cmax ([1]; 5 mg/kg, Casette) [ng/mL] | bioavailability ([1]; 5 mg/kg, Casette) [%] | IC50 (BRD4 BD1) [nM] | Fold selectivity BRD4 BD1/BD2 (BRD4 BD2) | IC50 (BRD4 BD2) [nM] | Cmax ([1]; 30 mg/kg, Individual) [ng/mL] | bioavailability ([1]; 30 mg/kg, Individual) [%] | half-life at 1 uM [2] [h] |
| --- | --- | --- | --- | --- | --- | --- | --- | --- |
| Cc1cccc(C)c1Oc1cn(C)c(=O)cc1-c1cn(C)c(=O)c2[nH]c(-c3ccc(F)cc3F)cc12 [Example 47, 2-(2,4-difluorophenyl)-4-(5-(2,6-dimethylphenoxy)-1-methyl-2-oxo-1,2-dihydropyridin-4-yl)-6-methyl-1,6-dihydro-7H-pyrrolo[2,3-c] pyridin-7-one] | 718 | 100 | > 1000 | xxx (Fold >200) | ≤ 50 | – | – | – |
| Cc1cccc(C)c1Oc1cn(C)c(=O)cc1-c1cn(C)c(=O)c2[nH]c(-c3cn(C(C)C)nc3C#N)cc12 [Example 49, 4-{4-[5-(2,6-dimethylphenoxy)-1-methyl-2-oxopyridin-4-yl]-6-methyl-7-oxo-1H-pyrrolo[2,3-c]pyridin-2-yl}-1-isopropylpyrazole-3-carbonitrile] | 19.3 | 7.81 | 50 to 500 | xx (Fold >50 and ≤200) | ≤ 50 | – | – | – |
| Cc1cc(-c2cc3c(-c4cc(=O)n(C)cc4-c4ccccc4)cn(C)c(=O)c3[nH]2)cc(C)n1 [Example 62, 4-[2-(2,6-dimethylpyridin-4-yl)-6-methyl-7-oxo-1H-pyrrolo[2,3-c]pyridin-4-yl]-1-methyl-5-phenylpyridin-2-one] | 1290 | 88.7 | 50 to 500 | xxx (Fold >200) | ≤ 50 | – | – | – |
| Cn1cc(-c2ccccc2)c(-c2cn(C)c(=O)c3[nH]c(-c4ccccc4)cc23)cc1=O [Example 63, 1-methyl-4-{6-methyl-7-oxo-2-phenyl-1H-pyrrolo[2,3-c]pyridin-4-yl}-5-phenylpyridin-2-one] | 1590 | 86.5 | > 1000 | xxx (Fold >200) | ≤ 50 | – | – | – |
| Cc1cccc(C)c1Oc1cn(C)c(=O)cc1-c1cn(C)c(=O)c2[nH]c(-c3cn(C4COC4)nc3C)cc12 [Example 64, 4-(5-(2,6-dimethylphenoxy)-1-methyl-2-oxo-1,2-dihydropyridin-4-yl)-6-methyl-2-(3-methyl-1-(oxetan-3-yl)-1H-pyrazol-4-yl)-1,6-dihydro-7H-pyrrolo[2,3-c]pyridin-7-one] | – | – | 500 to 1000 | xx (Fold >50 and ≤200) | ≤ 50 | 1010 | 12.5 | – |
| CC(C)n1cc(-c2cc3c(-c4cc(=O)n(C)cc4-c4ccccc4)cn(C)c(=O)c3[nH]2)cn1 [Example 61, 4-[2-(1-isopropylpyrazol-4-yl)-6-methyl-7-oxo-1H-pyrrolo[2,3-c]pyridin-4-yl]-1-methyl-5-phenylpyridin-2-one] | 622 | 51.2 | > 1000 | xxx (Fold >200) | ≤ 50 | – | – | – |
| Cc1cccc(C)c1Oc1cn(C)c(=O)cc1-c1cn(C)c(=O)c2[nH]c(-c3cccc(F)c3F)cc12 [Example 50, 4-[2-(2,3-difluorophenyl)-6-methyl-7-oxo-1H-pyrrolo[2,3-c]pyridin-4-yl]-5-(2,6-dimethylphenoxy)-1-methylpyridin-2-one] | 293 | 73 | > 1000 | xxx (Fold >200) | ≤ 50 | – | – | – |
| Cc1cccc(C)c1Oc1cn(C)c(=O)cc1-c1cn(C)c(=O)c2[nH]c(-c3ccn[nH]3)cc12 [Example 32, 4-(5-(2,6-dimethylphenoxy)-1-methyl-2-oxo-1,2-dihydropyridin-4-yl)-6-methyl-2-(1H-pyrazol-5-yl)-1,6-dihydro-7H-pyrrolo [2,3-c] pyridin-7-one] | – | – | > 1000 | xx (Fold >50 and ≤200) | 50 to 200 | – | – | > 1 |
| Cc1cccc(C)c1Oc1cn(C)c(=O)cc1-c1cn(C)c(=O)c2[nH]c(-c3cnn(C)c3C)cc12 [Example 36, 2-(1,5-dimethyl-1H-pyrazol-4-yl)-4-(5-(2,6-dimethylphenoxy)-1-methyl-2-oxo-1,2-dihydropyridin-4-yl)-6-methyl-1,6-dihydro-7H-pyrrolo[2,3-c] pyridin-7-one] | – | – | > 1000 | xx (Fold >50 and ≤200) | ≤ 50 | – | – | > 1 |
| Cc1cccc(C)c1Oc1cn(C)c(=O)cc1-c1cn(C)c(=O)c2[nH]c(-c3ccc(C#N)cc3)cc12 [Example 24, 4-(4-(5-(2,6-dimethylphenoxy)-1-methyl-2-oxo-1,2-dihydropyridin-4-yl)-6-methyl-7-oxo-6,7-dihydro-1H-pyrrolo[2,3-c]pyridin-2-yl) benzonitrile] | – | – | > 1000 | x (Fold >2 and ≤50) | 200 to 1000 | – | – | > 1 |
| Cc1ccc(F)c(-c2cc3c(-c4cc(=O)n(C)cc4Oc4c(C)cccc4C)cn(C)c(=O)c3[nH]2)c1 [Example 16, 4-(5-(2,6-dimethylphenoxy)-1-methyl-2-oxo-1,2-dihydropyridin-4-yl)-2-(2-fluoro-5-methylphenyl)-6-methyl-1,6-dihydro-7H-pyrrolo[2,3-c] pyridin-7-one] | – | – | > 1000 | xxx (Fold >200) | ≤ 50 | – | – | > 1 |
| Cc1cccc(C)c1Oc1cn(C)c(=O)cc1-c1cn(C)c(=O)c2[nH]c(-c3cnn[nH]3)cc12 [Example 30, 4-(5-(2,6-dimethylphenoxy)-1-methyl-2-oxo-1,2-dihydropyridin-4-yl)-6-methyl-2-(1H-1,2,3-triazol-5-yl)-1,6-dihydro-7H-pyrrolo[2,3-c] pyridin-7-one] | – | – | > 1000 | xx (Fold >50 and ≤200) | 50 to 200 | – | – | > 1 |
| Cc1ncc(-c2cc3c(-c4cc(=O)n(C)cc4Oc4c(C)cccc4C)cn(C)c(=O)c3[nH]2)s1 [Example 31, 4-(5-(2,6-dimethylphenoxy)-1-methyl-2-oxo-1,2-dihydropyridin-4-yl)-6-methyl-2-(2-methylthiazol-5-yl)-1,6-dihydro-7H-pyrrolo[2,3-c] pyridin-7-one] | – | – | 50 to 500 | xx (Fold >50 and ≤200) | ≤ 50 | – | – | > 1 |
| Cc1cccc(C)c1Oc1cn(C)c(=O)cc1-c1cn(C)c(=O)c2[nH]c(-c3ccc(C(=O)O)cc3)cc12 [Example 35, 4-(4-(5-(2,6-dimethylphenoxy)-1-methyl-2-oxo-1,2-dihydropyridin-4-yl)-6-methyl-7-oxo-6,7-dihydro-1H-pyrrolo[2,3-c]pyridin-2-yl) benzoic acid] | – | – | > 1000 | — (Fold ≥0 and ≤2) | > 1000 | – | – | > 1 |
| Cc1cccc(C)c1Oc1cn(C)c(=O)cc1-c1cn(C)c(=O)c2[nH]c(-c3cn(C)nc3C)cc12 [Example 12, 2-(1,3-dimethyl-1H-pyrazol-4-yl)-4-(5-(2,6-dimethylphenoxy)-1-methyl-2-oxo-1,2-dihydropyridin-4-yl)-6-methyl-1,6-dihydro-7H-pyrrolo[2,3-c] pyridin-7-one] | – | – | 500 to 1000 | xx (Fold >50 and ≤200) | ≤ 50 | – | – | > 1 |

— US20240308998A1, “PYRROLOPYRIDONE DERIVATIVES USEFUL IN THE TREATMENT OF CANCER” (Tay Therapeutics Limited, priority 2021, published 2024)
